These results are taken from patent EP4803511A1, “SMALL MOLECULE COMPOUND HAVING SULFONIC ACID OR SULFINIC ACID LACTONE STRUCTURE, COMPOSITION AND USE THEREOF” (Hangzhou Phecdamed Co., Ltd., priority 2023, dated 2025).

Each structure is given as a SMILES string.

Series [1] is described as follows: Kinetic solubility in aqueous buffer. The format is physicochemical. Particulars: 2 hrs at 25 °C. As for the experimental part:
Experimental Methods: 30 µL of the 10 mM DMSO stock solution of the compound to be test was placed in a solubility sample plate (duplicate), 970 µL of aqueous buffer solution was added to the plate, and the plate was sealed with a sealing membrane and shaken at 1100 rpm for 2 hrs at 25 °C. The sample in the solubility plate was transferred to a filter plate, and filtered to obtain a filtrate. 10 µL of the filtrate was transferred into 980 µL of methanol along with 10 µL of DMSO, and then the solution was diluted 10-fold with methanol:water (1:1), and the resulting sample was analyzed by LC-MS/MS to obtain Area (filtered). Separately, 10 mM of the DMSO stock solution of the compound to be test was diluted to 300 µM with DMSO. 10 µL of this 300 µM DMSO solution and 10 µL of aqueous buffer solution were added into 980 µL of methanol, and then diluted 10-fold with methanol:water (1:1), and the resulting sample was analyzed by LC-MS/MS to obtain Area (std). The kinetic solubility was calculated according to the following formula: Solubility(μM) = (Areafiltered × DFfiltered)/(Areastd × DFstd) × [std] × DFstd [formula] wherein DF is the dilution factor.

For another series, the system named is β-galactosidase. Kind of series: Zebrafish oxidative aging model (menadione), β-galactosidase activity. The format is in vivo. Particulars: I-8 at 22.2 µg/mL, 22 hrs, 4 µM menadione; compared with the modeling group, statistical significance. As for the experimental part: Experimental animal: Healthy wild-type AB strain zebrafish at 48 hpf (hours post-fertilization)
Healthy AB strain zebrafish were taken as experimental animal. A zebrafish oxidative aging model was constructed using chemical mutagenesis with 4 µM menadione as the modeling drug. Fucoxanthin was used as a positive control compound. After treating the zebrafish oxidative aging model with different concentrations of I-8 for 22 hrs, changes in the reactive oxygen species (ROS) content, β-galactosidase activity, and the expression of three antioxidant and anti-aging related genes (Cu/Zn-sod, Mn-sod, and ampk) were respectively detected and statistically analyzed.
During the experiment, the modeling drug, positive compound, and I-8 were dispersed together in the culture water of zebrafish. […] Cell ROX™ Deep Red fluorescent probes and β-galactosidase staining kits were used to specifically label ROS and β-galactosidase in the fish, respectively, and the staining intensity was quantified using Image-Pro Plus software. After extracting RNA from the whole fish, the expression changes of three genes (Cu/Zn-sod, Mn-sod, and ampk) in the fish were detected at the mRNA level using Quantitative Real-time PCR (RT-qPCR). The data were statistically analyzed using GraphPad software.

For series [2], the system named is wild-type AB strain zebrafish. Kind of series: Zebrafish tail amputation model, wound repair efficacy (caudal fin area). The format is in vivo. The settings on record: I-8 at 1, 3, and 9 µg/mL, 48 hrs; compared with the modeling group, statistical significance. As for the experimental part:
(§1) Experimental animal: Healthy wild-type AB strain zebrafish at 3 dpf (days post fertilization)
(§2) Evaluation of wound repair efficacy: Healthy AB strain zebrafish were taken as experimental animal, and randomly divided into blank control group, modeling group, positive control group, and sample group. The zebrafish in the blank control group were treated with culture water; the zebrafish in the modeling group were treated with culture water after cutting the caudal fin; the zebrafish in the positive control group and sample group were treated with 600 µg/mL hyaluronic acid and I-8 with different concentrations (1, 3, 9 µg/mL) respectively after cutting the caudal fin. The larva fish in above groups were placed in a constant temperature incubator at 28.5 °C and kept in continuous darkness for 48 hrs, with the culture medium changed once every 24 hrs. Image-Pro Plus software was used to calculate the area of the caudal fin of each group of zebrafish. The data were statistically analyzed using GraphPad software.

For series [3], the system named is wild-type AB strain zebrafish. As to the kind of experiment: Zebrafish model, relieving stinging efficacy (SDS-induced, movement distance and speed). The format is in vivo. The settings on record: zebrafish 3 dpf, 100 µM SDS model; effective concentrations 22.2, 66.6, and 200 µg/mL. As to the method: as §1
Evaluation of the relieving stinging efficacy: Healthy AB strain zebrafish were taken and randomly divided into four groups: blank control, modeling group, positive control, and sample group. The zebrafish in the blank control group were treated with embryo culture water; the zebrafish in the modeling group were treated with a modeling drug (100 µM SDS , sodium dodecyl sulfate); the zebrafish in the positive control group were treated with both the modeling agent and a positive control drug (200 µM asiaticoside solution); and the zebrafish in the sample group were treated with both the modeling drug and different concentrations of the test sample (high, medium, and low concentrations). After continuous treatment for a certain period, the zebrafish's behavioral trajectories were recorded using a behavior analyzer, and the changes in total movement distance and speed were statistically analyzed, the results are shown in FIGS. 2-4. […] In the behavioral trajectory diagram in FIG. 2, the black lines represent the zebrafish's behavioral trajectories in the hole; the more numerous and chaotic the lines, the more vigorous the movement of the zebrafish.

The subject of a further series is type I collagen. Kind of series: Type I collagen expression in HSF human skin fibroblasts (ELISA). The format is cell-based. Particulars: 24 hrs, dose-dependent. An excerpt: Skin fragility is partly attributed to changes in hemidesmosomes and the expression downregulation of various collagen proteins (Collagen I, III, IV, VII) or laminins (such as LN-5) at the dermal-epidermal junction. LN-5 has been proven to be a component of anchoring fibers in the basement membrane of the skin, cornea, conjunctiva, and other tissues. LN-5 participates in cell-cell interactions through the mediation of integrins and proteoglycans, thereby playing a crucial role in cell adhesion, growth, migration, and differentiation. The appearance of wrinkles is closely related to the normal synthesis and expression of collagen and laminins. Therefore, the increase of the above collagen content and LN-5 can achieve a certain role in resisting wrinkles, and plays an important role in the aging process of the skin. Therefore, the anti-wrinkle effect of the compound to be tested was evaluated by detecting the level of Collage I protein of […] by ELISA, and detecting the transcription levels of epidermal cells (keratinocytes) III, IV, VII and LN -5 by Real-Time PCR. The following Test Examples 8-1 and 8-2 evaluated the anti-wrinkle efficacy of compounds using HaCaT human immortalized keratinocytes and HSF human skin fibroblasts. […]
Background: An ELISA detects its analyte on a solid surface through an enzyme-linked reagent.

Series [4] deals with wild-type AB strain zebrafish. As to the kind of experiment: Zebrafish tail amputation model, inflammatory repair efficacy (inflammatory cells at the broken tail). The format is in vivo. Particulars: I-8 at 1, 3, and 9 µg/mL, 48 hrs; compared with the modeling group, statistical significance. As to the method: as §1
as §2, with “Image-Pro Plus software was used to calculate the area of the caudal fin of each group of zebrafish.” left out
Evaluation of inflammatory repair efficacy: As described above, the larva fish in each group were placed in a constant temperature incubator at 28.5 °C and kept in continuous darkness for 48 hrs. Inflammatory cells in the fish body were labeled with neutral red, and the number of inflammatory cells at the broken tail was counted. The data were statistically analyzed using GraphPad software.

`O=S1(=O)Oc2cc(O)ccc2-c2ccc(O)cc21` [Compound I-8]: in series [1], the solubility (kinetic) at 2 h is above 300 µM. The β-galactosidase activity entry in the series with β-galactosidase is reported as “downregulated”. In series [2], the caudal fin area entry is recorded as “increased”. Moreover, in series [3], the relieving stinging efficacy result is given as “certain relieving stinging efficacy”. In addition, the “secretion of type I collagen” value in the series with type I collagen was “improving the secretion of type I collagen”. In addition, the “number of inflammatory cells at the wound” value in series [4] is recorded as “decreased”.

One may read the solubility (kinetic) as solubility judged after dilution from a stock solution rather than from solid.
